We go through 1 substance from patent US20130116182A1, “Factor VIII B Cell Epitope Variants Having Reduced Immunogenicity” (priority 2009, published 2013).

The target of this assay is BO2C11 Fab fragment. The assay is described as follows: SPR binding of FVIII C2 proteins to immobilized BO2C11 Fab (Biacore T-100, 25° C., 1:1 binding model). The arrangement: species or system human. Particulars: equilibrium constant kd/ka, unit printed in Table 12 head. As for the experimental part:
All SPR measurements were carried out on a Biacore T-100 instrument (Biacore Life Sciences). […] The BO2C11 Fab fragment (3.9 mg/mL) was diluted 200-fold in 10 mM sodium acetate pH 5.0. The Fab was immobilized by amine coupling, using 1-Ethyl-3-(3-dimethyl-aminopropyl)carbodiimide-HCl and N-hydroxysuccinimide (Biacore) to activate the CM5 surface, then injecting the protein serially in Running Buffer HBS-EP+ until 300±5 resonance units (RUs) corresponding to immobilized protein were recorded, at which point 35 μl ethanolamine was injected to quench the reactive sites on the chip. This immobilization level yielded Rmax values between 30 and 100 RU (most were between 50-75 RU). […] C2 mutant proteins at 0.4 to 50 nM were injected for at least 120 seconds, and dissociation was monitored for 300-900 seconds to determine the association and dissociation rate constants, respectively. […] Resonance signals after regeneration injections were monitored to ensure complete dissociation of the C2 protein before initiating the next experiment. […] C2 mutant proteins with a dissociation constant (kd) at least four times higher than the average kd for WT-C2 were further evaluated by SPR runs at several temperatures to determine the relative contributions of enthalpy and entropy to the binding free energy.
(In general: In SPR one partner is held on a chip, and binding of the other changes the refractive index at the surface.)

The term Kd denotes the concentration at which binding is half-saturated. “A2201P: recombinant His-tagged FVIII C2 domain protein with hemophilic substitution A2201P (SYFTNMFPTWSPSKARLHLQ) [Mutant A2201P]”: the Kd is 0.019 nM.
